Patent publication US12042492B2 (priority 2020, dated 2024)

Legend:
N2a cells [1] = test: Cell viability (MTT assay) in N2a cells; type: cell-based, mouse; details: ligand treated N2a cells relative to untreated cells; P=0.038
Method: The N2a cells grown for 6 days in a serum-free medium (1:1 mixture of DMEM and OptiMEM, plus penicillin and streptomycin (Invitrogen, Carlsbad, CA, USA) until the cells developed neuronal processes. As shown in (FIG. 10), these cells were used for 4 groups—one control group and 3 treatment groups. 1) untreated N2a cells (the control group), 2) N2a cells treated with ligand 1 (N2a+ligand 1), 3) N2a cells transfected mAPP with the (lipofectamine) (20 μM final concentration for 6 hrs (mAPP), 4) N2a cells transfected with mAPP cDNA for 6 hrs, treated with ligand 1 (mAPP+ligand 1 treatment group), N2a cells treated with ligand 1 for 24 hrs and then treated with the mAPP cDNA for 6 hrs (ligand 1+mAPP treatment group). As shown in (FIG. 10), the inventors performed 4 independent cell cultures and treatments for all experiments (n=4).
Cell viability and apoptotic cell death MTT assay. Ligand 1 treated N2a cells, cell based apoptosis assay was performed using Cellometer Vision CBA Image Cytometry System (Nexcelom Bioscience LLC, Lawrence, MA) with two fluorophore Annexin V-FITC and Propidium Iodide (PI) staining solution, according to manufacturer's instructions. Briefly, cells were harvested using trypsin, then spin down at 300 g for three minutes and pellets were washed with 1×PBS, cells were counted using hematocytometer. […]

N2a cells [2] = test: Transmission electron microscopy of mitochondrial number and length; type: cell-based, mouse; details: TEM
Source text: Transmission electron microscopy. To determine the effects of ligand 1 on the number and length of mitochondria, the inventors used transmission electron microscopy on cells with untreated N2a cells, […], mAPP, and mAPP+ligand 1.
Transmission electron microscopy of mitochondria. To determine the protective effects ligand 1 the number and morphology of mitochondria and the rescue effects of Ligand 1, on Aβ induced mitochondrial toxicity. The inventors conducted transmission electron microscopy (TEM) of N2a cells from control and experimental treatments (n=4). Treated and untreated N2a cells were fixed in 100 mM sodium cacodylate (pH 7.2), 2.5% glutaraldehyde, 1.6% paraformaldehyde, 0.064% picric acid, and 0.1% ruthenium red. They were gently washed and post-fixed for 1 hr in 1% osmium tetroxide plus […] potassium ferricyanide, in 100 mM sodium cacodylate, pH 7.2. After a thorough rinsing in water, the N2a cells were dehydrated, infiltrated overnight in 1:1 acetone:Epon 812, infiltrated for 1 hr with 100% Epon 812 resin, and embedded in the resin. After polymerization, 60- to 80-nm thin sections were cut on a Reichert ultramicrotome and stained for 5 min in lead citrate. […] The numbers of mitochondria were counted in the control N2a cells (number of cells=50) and experimental groups (number of cells per group=40), and statistical significance was determined, using one-way ANOVA.

Substance: [(6As,8S,10aS,12aS)-10a, 12a-dimethyl-2-oxo-3,4,4a,4b,5,6,6a,7,8,9,10,10b,11,12-tetradecahydro-1H-naphtho[2,1-f]quinolin-8-yl] 4-[4-[bis(2-chloroethyl)amino]phenyl]butanoate [Ligand 1]
- Cell viability (N2a cells [1]): significantly increased
- Mitochondrial length (N2a cells [2]; cells treated with ligand 1 relative to untreated cells): significantly increased
- Number of mitochondria (N2a cells [2]; mAPP+ligand 1 vs mAPP cells, P=0.01): reduced
